Assay results as given in patent publication US8518958B2, “Pyrido [2,3-D] pyrimidines and their use as kinase inhibitors” (Forma Therapeutics, Inc., priority 2006, dated 2013).

Experiments:
HT-29 tumor cells = assay: Anti-proliferative activity, SRB assay; format: cell-based, human; settings: Homo sapiens, HT-29, 72 h, 72 hours exposure, read-out: CELLULAR IC50 HT-29
Description: We observed the surprising finding that compounds of the invention were useful in inhibiting proliferation of HT-29 tumor cells (see Table 3).
3,000-15,000 cells/well were exposed to the test compounds at various concentrations appropriate to determine an IC50, for 72 hours, and cell proliferation was measured using the SRB assay according to Shekan et al (J Natl Cancer Inst (1990) 82, 1107-112) in order to estimate the IC50 values shown in Table 3. Briefly, cells were plated in 96 well dishes 24 hours prior to compound addition. The assay was terminated with the addition of cold TCA to a final concentration of 10% and the plates were incubated for one hour at 4° C. The plates were then washed 5 times with water and 100 μl of a Sulforhodamine B solution (4%) was added to each well. The plate was then incubated for 10 minutes at room temperature before removal of unbound dye by washing with 1% acetic acid. The bound dye was solubilized with 10 mM Trizma base and the absorbance read at OD570. Inhibitory activity of the compounds was calculated as % inhibition of cell proliferation compared to cells treated with the solvent (DMSO).

B-Raf delta1-415 = B-Raf delta1-415 (Homo sapiens, UniProt P15056); assay: B-Raf kinase inhibition (MAPH filter plate, 33P-ATP, MEK1 substrate); settings: read-out: Biochemical IC50 B-Raf
B-Raf delta1-415, sequence (P15056 416-766): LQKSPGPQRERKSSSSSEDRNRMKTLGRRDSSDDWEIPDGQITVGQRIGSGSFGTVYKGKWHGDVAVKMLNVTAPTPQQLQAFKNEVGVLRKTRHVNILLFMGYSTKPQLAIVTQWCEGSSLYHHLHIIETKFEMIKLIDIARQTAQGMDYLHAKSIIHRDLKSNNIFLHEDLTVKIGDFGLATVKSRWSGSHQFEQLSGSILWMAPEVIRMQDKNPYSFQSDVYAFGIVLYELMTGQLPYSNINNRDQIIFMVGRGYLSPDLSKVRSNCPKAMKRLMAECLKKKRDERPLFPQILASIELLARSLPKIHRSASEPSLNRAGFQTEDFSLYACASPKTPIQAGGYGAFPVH
Source text: We characterized the in vitro inhibitory activity against protein kinases of compounds of the present invention by determining their IC50 values (see Table 2).
Kinase: B-Raf delta1-415 (e.g., Upstate Cat. No. 14-530)
Reaction Temperature: room temperature
Assay Plate: 96 well U bottom plate (Greiner, 650161)
MultiScreen-PH Plate: 96 well MAPH Filter Plates (Millipore, MAPHNOB50)
Filter Washing Solution: 0.75% H3PO4
Szintilation Liquid: Supermix Liquid Szintillator (PerkinElmer, 1200-439)
Negative Control (C−): 100 mM EDTA, no Inhibitor
Positive Control (C+): no Inhibitor
Reaction Buffer: 20 mM Mops, pH 7.0 • 10 mM MgCl2 • 0.4 mM MnCl2 • 100 mM NaCl • 1 mM DTT • 0.01% NP40
Final Assay Concentrations:
Kinase: Kinase conc. yielding 50% substrate turnover as determined in titration experiment.
Adenosine 5′-[γ-^33P]triphosphate: 12.5 μCi/ml (Amersham Biosciences, BF1000)
Pipetting Sequence: • 1) Add 10 μl 4-fold concentrated substrate in 3-fold concentrated reaction buffer to each well of assay plate • 2) Add 10 μl 4-fold concentrated inhibitor in 4% DMSO in H2O to each well except to C− and C+ wells (starting point: final inhibitor concentration 10 μM; IC50 determination based on dilution series) • 3) Add 10 μl 4% DMSO in H2O to C− and C+ wells • 4) Add 10 μl 500 mM EDTA in H2O to C− wells • 5) Add 10 μl 50 μCi/ml adenosine 5′-[γ-^33P]triphosphate in H2O+4-fold cold ATP to each well • 6) Add 10 μl 4-fold concentrated kinase in reaction buffer to each well • 7) Incubate 1 hr at room temperature • 8) Add 10 μl 50 mM EDTA in H2O to each well except to C− wells • 9) Prepare MAPH plates by adding 200 μl 0.75% H3PO4 to each well • 10) Exhaust 0.75% H3PO4 using Millipore vacuum station • 11) Add 60 μl 0.75% H3PO4 to each well of MAPH filter plate • 12) Transfer 30 μl sample per well from assay plate to corresponding well of MAPH filter plate • 13) Incubate 30 min at room temperature • 14) Wash each well of MAPH filter plates 3× with 200 μl 0.75% H3PO4 using Millipore vacuum station • 15) Add 20 μl scintillation liquid to each well of MAPH filter plate • 16) Seal MAPH filter plate • 17) Store MAPH filter plate 30 min in darkness • 18) Quantify radioactivity using scintillation counter (MicroBeta, Perkin-Elmer)

Row | SMILES | IC50 (HT-29 tumor cells) [nM] | IC50 (B-Raf delta1-415) [nM]
1 | COn1c(=O)c(-c2c(Cl)cccc2Cl)cc2cnc(Nc3ccc(C)cc3)nc21 [Compound 150, 6-(2,6-Dichlorophenyl)-2-(4-methylphenyl)-amino-8-methoxy-pyrido[2,3-d]pyrimidin-7-one] | < 10000 | > 1000
2 | COn1c(=O)c(-c2c(F)cccc2Cl)cc2cnc(Nc3cc(C(=O)N4CCNCC4)n(C)c3)nc21 [Compound 208, 6-(2-Chloro-6-fluorophenyl)-8-methoxy-2-(5-piperazinocarbonyl-1-methyl-pyrrol-3-yl)-amino-pyrido[2,3-d]pyrimidin-7-one] | < 1000 | < 100
3 | O=c1c(-c2c(F)cccc2Cl)cc2cnc(Nc3ccc(N4CCNCC4)cc3)nc2n1OCC1CCOCC1 [Compound 215] | < 1000 | < 100
4 | CN1CCN(c2ccc(Nc3ncc4ccc(=O)n(OC5CCCCC5)c4n3)cc2)CC1 [Compound 236] | < 1000 | 
5 | COn1c(=O)c(-c2c(Cl)cccc2Cl)cc2cnc(Nc3csc(C(=O)N4CCN(C)CC4)c3)nc21 [Compound 142, 6-(2,6-Dichlorophenyl)-8-methoxy-2-(5-(4-methylpiperazino)carbonyl-thiophen-3-yl)-amino-pyrido[2,3-d]pyrimidin-7-one] | < 1000 | < 100
6 | COn1c(=O)c(-c2c(Cl)cccc2Cl)cc2cnc(Nc3cccc(S(=O)(=O)N4CCOCC4)c3)nc21 [Compound 127, 6-(2,6-Dichlorophenyl)-2-(3-morpholinosulfonylphenyl)-amino-8-methoxy-pyrido[2,3-d]pyrimidin-7-one] | < 1000 | < 500
7 | COn1c(=O)c(-c2c(F)cccc2Cl)cc2cnc(Nc3ccc(N4CCNCC4)c(C#N)c3)nc21 [Compound 213, 6-(2-Chloro-6-fluorophenyl)-8-methoxy-2-(3-cyano-4-piperazinophenyl)-amino-pyrido[2,3-d]pyrimidin-7-one] | < 1000 | < 100
8 | COn1c(=O)c(-c2c(Cl)cccc2Cl)cc2cnc(Nc3cccc(S(C)(=N)=O)c3)nc21 (centres unmarked) [Compound 161, 6-(2,6-Dichlorophenyl)-8-methoxy-2-(3-methyliminosulfonylphenyl)-amino-pyrido[2,3-d]pyrimidin-7-one] | < 1000 | < 100
9 | O=c1c(-c2c(F)cccc2Cl)cc2cnc(Nc3ccc(N4CCOCC4)cc3)nc2n1OCC1CC1 [Compound 129] | < 1000 | < 100
10 | COn1c(=O)c(-c2c(Cl)cccc2Cl)cc2cnc(Nc3ccc(C(C)=O)cc3)nc21 [Compound 192, 2-(4-Acetylphenyl)amino-6-(2,6-dichlorophenyl)-8-methoxy-pyrido[2,3-d]pyrimidin-7-one] | < 1000 | < 500
11 | COn1c(=O)c(-c2c(Cl)cccc2Cl)cc2cnc(Nc3ccc(CC#N)cc3)nc21 [Compound 97, 2-(4-cyanomethylphenyl)-amino-6-(2,6-dichlorophenyl)-8-methoxy-pyrido[2,3-d]pyrimidin-7-one] | < 1000 | < 100
12 | COn1c(=O)c(-c2c(Cl)cccc2Cl)cc2cnc(Nc3ccc(CNS(C)(=O)=O)cc3)nc21 [Compound 120, 6-(2,6-Dichlorophenyl)-8-methoxy-2-(4-methylsulfonylaminomethyl-phenyl)-amino-pyrido[2,3-d]pyrimidin-7-one] | < 1000 | < 100
13 | COn1c(=O)c(-c2c(F)cccc2Cl)cc2cnc(Nc3ccc(N4CCNCC4)c(CO)c3)nc21 [Compound 218, 6-(2-Chloro-6-fluorophenyl)-8-methoxy-2-(3-hydroxymethyl-4-piperazinophenyl)-amino-pyrido[2,3-d]pyrimidin-7-one] | < 1000 | < 100
14 | COn1c(=O)c(-c2c(Cl)cccc2Cl)cc2cnc(Nc3ccc(Cc4n[nH]c(C)n4)cc3)nc21 [Compound 151, 6-(2,6-Dichlorophenyl)-8-methoxy-2-(4-(5-methyl-1,2,4-triazol-3-yl)methylphenyl)-amino-pyrido[2,3-d]pyrimidin-7-one] | < 1000 | < 500
15 | COn1c(=O)c(-c2c(F)cccc2Cl)cc2cnc(Nc3cc(C(=O)N4CCOCC4)n(C)c3)nc21 [Compound 197, 6-(2-Chloro-6-fluorophenyl)-8-methoxy-2-(5-morpholinocarbonyl-1-methyl-pyrrol-3-yl)-amino-pyrido[2,3-d]pyrimidin-7-one] | < 1000 | < 500
16 | O=c1c(-c2c(F)cccc2Cl)cc2cnc(Nc3ccc(N4CCOCC4)cc3)nc2n1OC[C@H](O)CO [Compound 152] | < 1000 | < 100
17 | COC(=O)c1cc(Nc2ncc3cc(-c4c(C)cccc4C)c(=O)n(OC)c3n2)cn1C [Compound 79] | < 1000 | < 500
18 | COn1c(=O)c(-c2c(Cl)cccc2Cl)cc2cnc(Nc3cc(C(=O)N(C)CCOC(=O)C(C)(C)C)n(C)c3)nc21 [Compound 140, 6-(2,6-Dichlorophenyl)-8-methoxy-2-(5-N-(2-(2,2-dimethylpropanoyl)oxyethyl)-N-methyl-aminocarbonyl-1-methyl-pyrrol-3-yl)-amino-pyrido[2,3-d]pyrimidin-7-one] | < 1000 | < 500
19 | C/C=C/C(=O)Nc1ncc2cc(-c3c(C)cccc3C)c(=O)n(OC)c2n1 [Compound 96, 2-But-2-enoylamino-6-(2,6-dimethylphenyl)-8-methoxy-pyrido[2,3-d]pyrimidin-7-one] | > 10000 | > 1000
20 | COn1c(=O)c(-c2c(Cl)cccc2Cl)cc2cnc(Nc3cc(C(=O)N(C)CCO)n(C)c3)nc21 [Compound 116, 6-(2,6-Dichlorophenyl)-2-(5-(N-(2-hydroxyethyl)-N-methyl-amino)carbonyl-1-methyl-pyrrol-3-yl)-amino-8-methoxy-pyrido[2,3-d]pyrimidin-7-one] | < 1000 | < 100
21 | CCCN1CCN(c2ccc(Nc3ncc4cc(-c5c(Cl)cccc5Cl)c(=O)n(OC)c4n3)cc2)CC1 [Compound 204, 6-(2,6-Dichlorophenyl)-8-methoxy-2-(4-(4-propylpiperazino)phenyl)-amino-pyrido[2,3-d]pyrimidin-7-one] | < 1000 | < 100
22 | COn1c(=O)c(-c2c(Cl)cccc2Cl)cc2cnc(Nc3cccc(-c4nnn[nH]4)c3)nc21 [Compound 130, 6-(2,6-Dichlorophenyl)-8-methoxy-2-(3-tetrazol-5-ylphenyl)-amino-pyrido[2,3-d]pyrimidin-7-one] | > 10000 | < 500
23 | Cn1cc(Nc2ncc3cc(-c4c(F)cccc4Cl)c(=O)n(OCC4CCOCC4)c3n2)cc1C(=O)N1CCNCC1 [Compound 224, 6-(2-Chloro-6-fluorophenyl)-2-(5-(piperazinocarbonyl)-1-methyl-pyrrol-3-yl)-amino-8-(tetrahydropyran-4-ylmethyl)oxy-pyrido[2,3-d]pyrimidin-7-one] | < 1000 | 
24 | COc1cc(Nc2ncc3cc(-c4c(Cl)cccc4Cl)c(=O)n(OC)c3n2)ccc1N1CCNCC1 [Compound 227, 6-(2,6-Dichlorophenyl)-8-methoxy-2-(3-methoxy-4-piperazino-phenyl)-amino-pyrido[2,3-d]pyrimidin-7-one] | < 1000 | 
25 | NCCCCOn1c(=O)c(-c2c(Cl)cccc2Cl)cc2cnc(Nc3ccccc3)nc21 [Compound 66, 8-(4-Aminobutyl)oxy-6-(2,6-dichlorophenyl)-2-phenylamino-pyrido[2,3-d]pyrimidin-7-one] |  | < 100
26 | CN1CCN(c2ccc(Nc3ncc4ccc(=O)n(OC(C)(C)C)c4n3)cc2)CC1 [Compound 233] |  | > 1000
